Laboratory results: patent publication US20260337187A1, “COMPOUNDS FOR TREATMENT OF INFLAMMATORY PROCESSES” (THORNE LIMITED, priority 2022, published 2026)

Key:
primary human B cells = assay: B lymphocyte plasmablast development (CD38+/CD19low and CD138+ by FACS); assay type: cell-based; conditions: 5 days; FIG. 4 (20 and 10 μM)
Experimental: The effect of two concentrations (from right to left: 20 and 10 μM) of B2 is shown in each plot in comparison to control (far left). Each symbol represents one experiment.
B lymphocyte plasmablast development: For human B lymphocyte plasmablast development, primary human B cells were isolated from buffy coat using the MACSxpress Buffy Coat Pan B Cell Isolation Kit (Miltenyi Biotec) as per manufacturer's instructions. The cells were cultured in RPMI in the presence of human transferrin (20 μg/ml), IL-21 (100 ng/ml), recombinant hCD40L (100 μg/ml), anti-HA (50 μg/ml), at a cell density of 5×10^4 cells/ml. Plasmablast formation after 5 days was measured by FACS using two sets of markers: CD38+/CD19low and CD138+ for two stages of plasmablast development.
To investigate the inhibition of B lymphocyte plasmablast development by B2, primary human B cells, isolated from buffy coat, were cultured in the presence of CD40, IL21, anti-IgM, and plasmablast formation measured by FACS using two sets of markers: CD38+/CD19low (FIG. 4, upper plot) and CD138+(FIG. 4, lower plot) for two stages of plasmablast development.

human primary mast cells = assay: Mast cell degranulation (Lamp-1/CD107a by FACS); assay type: cell-based; conditions: IgE/anti-IgE; FIG. 6 (100, 50, 20 μM)
Experimental: Three different concentrations of B2 were tested (from left to right: 100, 50 and 20 μM) and the average of 11 experiments is shown as % reduction in degranulation (left plot). Degranulation was also measured at 3 time points (from left to right: 30, 15 and 5 minutes) after addition of 100 μM B2 (right plot).
Mast cell degranulation: Human primary mast cells were developed in StemSpan™ SFEM including 125 ng/ml SCF and 20 ng/ml IL3 from CD34+ hematopoietic precursor cells, and their purity after 4 to 5 weeks measured by FACS for c-kit and FceRI expression. This was measured by FACS using the appearance of Lamp-1 (CD107a) in line with that previously described by Klewer et al. (2021), applied here to human primary mast cells. Degranulation was triggered by preincubation of mast cells overnight with 1.3 μg/ml IgE followed by treatment with 0.2 μg/ml anti-IgE for 30 min.
To investigate the inhibition of mast cell degranulation by B2, degranulation was measured by FACS using the appearance of Lamp-1 (CD107a) on the surface of human primary mast cells upon degranulation. Degranulation was triggered by IgE/anti-IgE and B2 was applied 30 minutes before adding IgE. Three different concentrations of B2 were tested; from left to right in FIG. 6 (left plot): 100, 50 and 20 μM. […] Degranulation was also measured at 3 time points after addition of 100 μM B2 (FIG. 6, right plot).

primary human mast cells = assay: Mast cell cytokine release (cytokine array); assay type: cell-based; conditions: 100 μM B2, 24 h, IgE/anti-IgE
Experimental: FIG. 8 is a plot showing average relative intensity of cytokine levels relative to control showing the modulation of mast cell cytokine release by B2. Average of 3 experiments.
Mast cell cytokine release: Primary human mast cells developed in culture from CD34+ precursors as described above in relation to mast cell degranulation were stimulated at a cell density of 0.8×10^6 cells/ml by 0.12 mg/ml IgE and 0.1 μg/ml anti-IgE in mast cell medium (StemSpan SFEM including 100 ng/ml SCF, 50 ng/ml IL6, 2 & FBS, and 1% Pen/Strep). Simultaneously, the cells were treated with 100 μM B2, and cytokine levels present in the culture supernatants were measured after 24 h. The levels of 105 cytokines were measured by the R&D Systems Human XL cytokine array as per manufacturer's instructions. The signals were measured by a fluorescence-based photometric read-out in the Li—COR Odyssey Fluorescent imaging system, and the spots quantified by Fiji software.
To investigate the modulation of mast cell cytokine release by B2, primary human mast cells were stimulated by IgE/anti-IgE, treated with 100 μM B2, and cytokine levels present in the culture supernatants measured after 24 h. The levels of 105 cytokines were measured by the R&D Systems Human XL cytokine array and a fluorescence-based photometric read-out.

[1] = system: primary peripheral blood monocytes; assay: Macrophage/monocyte migration to CCL2 (Boyden chamber/Transwell); assay type: cell-based, human; conditions: 50 μM B2, towards CCL2 (FIG. 10)
Experimental: Dark grey: dimethylsulfoxide (DMSO) only; light grey: 50 μM B2. An exemplary experiment out of four is shown.
Macrophage/monocyte migration: Monocytes/macrophages were purified from buffy coats, first by density gradient centrifugation on ficoll to isolate total PBMC, and then by negative selection using the monocyte purification kit from Miltenyi Inc. as per manufacturer's instructions. Monocytes were then resuspended in tissue culture media at a concentration of 5×10^6 per ml. Monocyte migration to CCL2 was then measured using a Boyden chamber assay fitted with a membrane with […] pores. This was performed as follows: 200 μl of cells were pipetted into the upper chamber in the presence or absence of B2 or DMSO control. In the lower chamber 1 ml of the chemokine solution at concentrations of 10 ng/mL and 100 ng/mL, together with the same amount of B2 or DMSO as in the upper chamber was added. Cells were then left to migrate for 6 hours and the number of cells migrating into the lower chamber was ascertained by standard cell counting.
To investigate the inhibition of macrophage/monocyte migration by B2, primary peripheral blood monocytes were isolated from buffy coat and subsequent negative selection. […] Migrated cells were quantified after 5 hours in the presence of carrier (DMSO) only or 50 μM B2 in DMSO (FIG. 10).

SMILES: Cc1onc(-c2ccccc2Cl)c1C(=O)Nc1nc2ccc([N+](=O)[O-])cc2s1 [B2, 3-(2-chlorophenyl)-5-methyl-N-(6-nitrobenzo[d]thiazol-2-yl)isoxazole-4-carboxamide]
- human B cell plasmablast development (primary human B cells): inhibition of human B cell plasmablast development
- IgE-mediated mast cell degranulation (human primary mast cells): inhibited by B2 in IgE-mediated degranulation
- mast cell cytokine release profile (primary human mast cells): reducing specific pro-inflammatory cytokines
- macrophage migration [1]: reduces macrophage migration
